Measured values as given in patent US20050042266A1, “Cyanoacrylate compositions containing anti-microbial agent” (priority 2003, published 2005).

Experiments:
[1] = Compatibility of triclosan/2-octyl cyanoacrylate composition with sterilization (visual observation); type: physicochemical
Description: A 2-octyl cyanoacrylate monomer composition is prepared as in Example 1 by adding 1 wt % triclosan to 2 mL of 2-octyl cyanoacrylate monomer. The mixture is sealed in a glass vial or plastic vial and stirred.
After sitting for about twenty-four hours, the mixture contained in the plastic vial is sterilized using electron beam sterilization to a Sterility Assurance Level (SAL) of 10^−6. After sitting for about twenty-four hours, the mixture contained in the glass vial is sterilized using dry heat sterilization to a Sterility Assurance Level (SAL) of 10^−6. The characteristics of the sterilized compositions are observed at about one minute after sterilization and later at least twenty-four hours after sterilization.

[2] = Solubility and stability of 1 wt % triclosan in 2-octyl cyanoacrylate monomer (visual observation); type: physicochemical
Description: A 2-octyl cyanoacrylate monomer composition is prepared by adding 1 wt % triclosan to 2 mL of 2-octyl cyanoacrylate monomer. The mixture is sealed in a glass vial or plastic vial and stirred. The characteristics of the composition are observed at about one minute after preparation and later at least twenty-four hours after preparation.

Oc1cc(Cl)ccc1Oc1ccc(Cl)cc1Cl [triclosan, 2,4,4′-trichloro-2 hydroxy di-phenyl ether]
compatibility with dry heat sterilization ([1]; 1 wt % in 2-octyl cyanoacrylate, glass vial, SAL 10^-6, solution remains clear): compatible | compatibility with electron beam sterilization ([1]; 1 wt % in 2-octyl cyanoacrylate, plastic vial, SAL 10^-6, solution remains clear): compatible with electron beam sterilization | premature polymerization during or after sterilization ([1]; about one minute and at least twenty-four hours after sterilization): does not cause premature polymerization during or after sterilization | premature polymerization (stability of monomer composition) ([2]; 1 wt % in 2-octyl cyanoacrylate, about one minute and at least twenty-four hours after preparation): does not cause premature polymerization | solubility in the monomer ([2]; 1 wt % in 2 mL 2-octyl cyanoacrylate, observed about one minute and at least twenty-four hours after preparation, solution remains clear): soluble in the monomer
